# Data reported in patent publication US12714698B2, “Compositions and methods for treating or preventing dermal disorders” (Drexel University, priority 2015, dated 2026).
# Read-outs that look alike come from different tables or passages of the source.
# Tests used:
# [1] = system: human cardiac fibroblasts; experiment: Mitochondrial membrane potential, mass, superoxide and total ROS by flow cytometry; type: cell-based; conditions: control cultures (no rapamycin) treated with scavenger during NRTI exposure
# Experimental: (§1) Cell culture experiments utilizing NRTIs were of the following design. Cultures of either human lung or cardiac fibroblasts were cultivated according to standard culture protocols for these cells (Cristofalo, et al., Journal of Tissue Culture Methods 1980, 6:117-121). Parallel sets of cultures were maintained in normal growth media or in normal growth media with the addition of 1 nM rapamycin. Cultures were maintained with 1 nM rapamycin (Enzo Biologicals) for two weeks before exposure to NRTIs. Cell cultures were exposed to NRTIs at indicated concentrations in individual experiments (generally 10-20 μg/ml) for 7 days, with a change of media and fresh NRTIs at day 4. Mitochondrial measurements, bioanalyzer measurements, immunoblotting for protein expression and phosphorylation status, and assays for senescence were performed at the end of this 7-day period.
# (§2) Cell culture reagents were from Cellgro, unless indicated. WI-38 fetal-lung primary human fibroblasts or human cardiac fibroblasts were grown in MEM supplemented with 10% fetal bovine serum, 1% L-glutamine, MEM vitamins, and MEM non-essential amino acids. Cells were maintained in a 37° C. in 5% CO2 incubator. For treatment studies, cells were treated with 1 nM rapamycin (Enzo Biologicals) for two weeks before treatment with NRTIs. Cells were maintained by trypsinization and reseeding at a cell density of 1×10^4/cm^2 every 7 to 10 days. Emtricitabine (FTC) and tenofovir disoproxil fumarate (TDF) were kindly provided by the NIH AIDS Research & Reference Reagent program. During the 7-day exposure to the NRTIs, the pharmacologic inhibitors PD98059 (10 μM, Santa Cruz Biotechnologies), BI-D1870, GW5074, and SB203580 (10 μM, Enzo Biologicals) were added to the culture medium either during the final 48 hours or for the final 2 hours depending upon the experiment. During the 7-day exposure to NRTIs, Trolox (500 μM) and N-acetylcysteine (100 μM, Acros Organics) were added every other day. Mito-Q (20 nM) and TPP (20 nM) were kindly provided by Dr. Brett Kaufmann at the University of Pennsylvania School of Veterinary Medicine. Vector and mt-catalase adenoviruses (MOI's 25, 50, and 75) were purchased from Gene Transfer Vector Core from the University of Iowa.
# Mitochondrial membrane potential was detected by incubating cells with 25 nM TMRE (Molecular Probes). Mitochondrial mass was evaluated by incubating the cells with 100 nM Mitotracker Green FM (Molecular Probes). Mitochondrial superoxide anion levels were detected by incubating the cells with 5 μM MitoSox Red (Molecular Probes). Total cellular levels of ROS were detected by incubating the cells with 10 μM 2′,7′-dichlorofluoroscein diacetate (DCF-DA; Sigma-Aldrich) in 1% fetal bovine serumsupplemented MEM and washing twice with Krebs Ringer phosphate glucose buffer (145 mM NaCl, 5.7 mM NaH2PO4, 4.86 mM KCL, 0.54 mM CaCl2), 1.22 mM MgSO4, and 5.5 mM glucose) following the incubation period. For the aforementioned assessments, incubation was performed at 37° C. in 5% CO2 for 30 minutes and cells were harvested in 2.5% trypsin-EDTA with serum-containing medium. Cells were immediately analyzed with a Guava EasyCyte Mini employing the Guava Express Plus program (Guava Technologies).
# [2] = system: human cardiac fibroblasts; experiment: Immunoblot of senescence markers (p53, p21, p16, lamin B1, IL-6); type: cell-based; conditions: ROS-reducing intervention during NRTI exposure, no rapamycin
# Experimental: as §1, §2
# Cell protein extracts were prepared by extracting with radioimmunoprecipitation assay (RIPA) buffer containing a protease inhibitor cocktail (Sigma-Aldrich) and phosphatase inhibitors, NaF and sodium orthovanadate. Protein concentration was quantified using a bicinchoninic acid (BCA) assay (Pierce Biotechnology). […] For co-immunoprecipitation, cell protein extracts were prepared in HNTG buffer containing a protease inhibitor cocktail and quantified using BCA assay. […]
# [3] = system: human cardiac fibroblasts; experiment: Senescence-associated beta-galactosidase detection; type: cell-based; conditions: ROS-reducing intervention during NRTI exposure, no rapamycin
# Experimental: as §1
# Assessment of SA-β-gal activity was performed by plating cells following respective treatments at low density (0.5×10^4/cm^2) to prevent false positive staining known to occur in high density cultures. […] Following incubation, cells were washed three times with PBS and at least 500 cells were counted for each sample in triplicates. Positive cells (blue cells) were expressed as a percentage of total cells.
# [4] = system: human cardiac fibroblasts; experiment: Mitochondrial respiration, Seahorse XF24 Bioanalyzer; type: cell-based; conditions: mito-Q during NRTI exposure
# Experimental: Cell culture experiments utilizing NRTIs were of the following design. Cultures of either human lung or cardiac fibroblasts were cultivated according to standard culture protocols for these cells (Cristofalo, et al., Journal of Tissue Culture Methods 1980, 6:117-121). Parallel sets of cultures were maintained in normal growth media or in normal growth media with the addition of 1 nM rapamycin. Cultures were maintained with 1 nM rapamycin (Enzo Biologicals) for two weeks before exposure to NRTIs. […] Mitochondrial measurements, bioanalyzer measurements, immunoblotting for protein expression and phosphorylation status, and assays for senescence were performed at the end of this 7-day period. Mitochondrial function was measured using the XF cell mito stress test kit on a Seahorse XF24 Bioanalyzer (Seahorse Bioscience). Cells were seeded at a density of 15,000 cells per well in an XF24 microplate. Following acquisition, results were normalized based upon 10^6 cells counted using a Guava EasyCyte Mini (Millipore), where applicable. […] Respiration rates and proton leak were assessed as outlined in published methods (Hill, et al., Biological chemistry 2012, 393:1485-1512). Mitochondrial respiration was calculated based upon oxygen consumption rate measurements in triplicates from cells seeded in at least quadruplicates. Basal respiration represents the initial oxygen consumption rate measurements and maximal respiration represents the oxygen consumption rate measurements following FCCP addition. ATP-linked respiration is represented as the oligomycin-sensitive oxygen change to basal oxygen consumption rate. Proton leak represents the oligmycin insensitive oxygen consumption rate. […] All data was normalized to cell number by counting cells in each well at the completion of the mitochondrial assessments.
# [5] = system: ribosomal S6 protein and MDM2; experiment: Immunoblot of ribosomal S6 protein and MDM2 phosphorylation (mTORC1/p70S6K signaling); type: cell-based, human
# Experimental: as §1, §2
# Cell protein extracts were prepared by extracting with radioimmunoprecipitation assay (RIPA) buffer containing a protease inhibitor cocktail (Sigma-Aldrich) and phosphatase inhibitors, NaF and sodium orthovanadate. Protein concentration was quantified using a bicinchoninic acid (BCA) assay (Pierce Biotechnology). Western blot analysis was performed using 15 to 30 μg of protein extracts that were run on SDS-PAGE and transferred onto nitrocellulose (Biorad) membranes. Blots were incubated with antibodies specific for: beta-actin (Sigma-Aldrich), TFAm, parkin, p16, phospho(S82)HSP27, HSP27 (Santa Cruz Biotechnologies), p53, 21, catalase, MDM2 (EMD Millipore), VDAC, phospho(S235/236)-ribosomal protein S6, ribosomal protein S6, phospho(S166)-MDM2, phospho(5473)-AKT, AKT, beta-tubulin (Cell Signaling), p62 (Enzo Biologicals), IL-6 (NeoBiolab), lamin B1, PINK1, and Mitoprofile Total OXPHOS Cocktail (complex I-NDUFB8 subunit, CII-SDHB subunit, […]2 subunit, and CIV-mitochondrial COX1 subunit) (Abcam) according to manufacturers' instructions. Western blots were visualized using IRDye 680 and 800 LI-COR secondary antibodies on a LI-COR Odyssey using LI-COR Odyssey software version 3.0 (LI-COR Biosciences). For co-immunoprecipitation, cell protein extracts were prepared in HNTG buffer containing a protease inhibitor cocktail and quantified using BCA assay. Protein extracts at the concentration of 0.5 mg were pre-cleared with protein A/G beads (Santa Cruz Biologicals) for 30 minutes. After centrifugation at 2,000 rpm for 5 minutes at 4° C., the supernatant was incubated with the primary antibody at manufacturer's recommended concentration overnight at 4° C. An IgG antibody (Cell Signaling) was used as a non-specific control.
# [6] = system: ribosomal S6 protein and MDM2; experiment: as above; type: cell-based, human; remark: listed apart in the source
# [7] = system: human fibroblasts; experiment: Ethidium bromide mitochondrial stress in human fibroblasts; conditions: exposure to ethidium bromide
# Description: Human fibroblasts were exposed to ethidium bromide for 7 days and cell viability measured at that time.
# [8] = agent added to NRTI-exposed cardiac fibroblasts
# [9] = replicative senescent cardiac fibroblasts
# [10] = serum-free 48 hours, exposure 2 hours, 1 to 400 μM
structure (smiles),measurement,setting,value
COC1=C(OC)C(=O)C(CCCCCCCCCC[P+](c2ccccc2)(c2ccccc2)c2ccccc2)=C(C)C1=O [Mito-Q],mitochondrial ROS following exposure to NRTIs,[1],ameliorated
same,mitochondrial ROS following exposure to NRTIs,[1]; listed as mito-Q,lower level
same,"increase in senescence-associated proteins (p53, p21, p16) following NRTI exposure",[2],ameliorated
same,percentage of cells positive for SA-β-gal staining,[3],reduced
same,"NRTI-induced increase in basal respiration, ATP-linked respiration and proton leak",[4],partially alleviated
same,maximal respiration,[4],less affected
same,MDM2 phosphorylation in cells exposed to NRTIs,[5]; [8],reduced
same,ribosomal S6 phosphorylation in cells exposed to NRTIs,[5]; [8],reduced
CC(C)CCN1c2nc(Nc3cc(F)c(O)c(F)c3)ncc2N(C)C(=O)C1C (stereo not drawn) [BI-D1870],phosphorylated MDM2 in senescent fibroblasts,[6]; [9],reduced
same,ribosomal S6 phosphorylation in senescent fibroblasts,[6]; [9],reduced
same,ribosomal S6 phosphorylation in cells exposed to NRTIs,[5]; [8],greatest impact
C[S+]([O-])c1ccc(-c2nc(-c3ccncc3)c(-c3ccc(F)cc3)[nH]2)cc1 (stereo not drawn) [SB-203580],MDM2 phosphorylation in cells exposed to NRTIs,[5],no effect
same,ribosomal S6 phosphorylation in cells exposed to NRTIs,[5],no effect
COc1cc(C(C)=O)ccc1O [apocyanin],ribosomal S6 phosphorylation in cells exposed to NRTIs,[5]; [8],did not prevent the increase
CCc1cncnc1N1CCN(Cc2nc3ccc(C(F)(F)F)cc3[nH]2)CC1 [PF-4708671],MDM2 phosphorylation in cells exposed to NRTIs,[5]; [8],inhibited
same,ribosomal S6 phosphorylation in cells exposed to NRTIs,[5]; [8],inhibited
N#CC(=C(/N)Sc1ccccc1N)/C(C#N)=C(\N)Sc1ccccc1N [U0126],ribosomal S6 phosphorylation in cells exposed to NRTIs,[6],some decrease
CC[n+]1c(-c2ccccc2)c2cc(N)ccc2c2ccc(N)cc21 [ethidium bromide],mitochondrial network,[7],destroyed
OO [hydrogen peroxide],ribosomal S6 and MDM2 phosphorylation at the lower concentrations,"[6]; serum-free 48 hours, exposure 2 hours",increased
same,concentration of maximal activation of ribosomal S6 and MDM2 phosphorylation,[6]; [10],50 µM
same,concentrations at which ribosomal S6 and MDM2 phosphorylation are inhibited,[6]; [10],above 100 μM
C=C(C)[C@H]1Cc2c(ccc3c2O[C@@H]2COc4cc(OC)c(OC)cc4[C@@H]2C3=O)O1 [rotenone],concentration of sharp inhibition of S6 phosphorylation,"[6]; serum deprived cardiac fibroblasts, 16 hours",50 nM
same,S6 phosphorylation at nanomolar concentrations,"[6]; serum deprived cardiac fibroblasts, 16 hours, 1 to 50 nM",increased
O=C1Nc2ccc(I)cc2/C1=C/c1cc(Br)c(O)c(Br)c1 [GW5047],ribosomal S6 phosphorylation in cells exposed to NRTIs,[5]; [8],some decrease
